# Laboratory results as given in patent US20240218022A1, “ANTI-VISTA MACROCYCLIC PEPTIDES AND COMPOSITIONS” (BRISTOL-MYERS SQUIBB COMPANY, priority 2022, published 2024).
# Positions of bridges follow the written chain, without caps; N, C: chain ends. Non-standard residues stand in square brackets, D forms with d. Residues, ends and D or L forms follow the SMILES beside them. 2Nal = N[C@@H](Cc1ccc2ccccc2c1)C(=O)O; Cit = NC(=O)NCCC[C@H](N)C(=O)O; Ahp(2) = CCCCC[C@H](N)C(=O)O; NMeNle = CCCC[C@H](NC)C(=O)O; NHexGly = CCCCCCNCC(=O)O; Nle = CCCC[C@H](N)C(=O)O
# Target: T1, mouse VISTA (mVISTA) (Mus musculus, UniProt Q9D659)
# T1 construct: expressed in transfected cells; host or cells: Human embryonic kidney 293T cells
# T1 sequence (Q9D659 33-308): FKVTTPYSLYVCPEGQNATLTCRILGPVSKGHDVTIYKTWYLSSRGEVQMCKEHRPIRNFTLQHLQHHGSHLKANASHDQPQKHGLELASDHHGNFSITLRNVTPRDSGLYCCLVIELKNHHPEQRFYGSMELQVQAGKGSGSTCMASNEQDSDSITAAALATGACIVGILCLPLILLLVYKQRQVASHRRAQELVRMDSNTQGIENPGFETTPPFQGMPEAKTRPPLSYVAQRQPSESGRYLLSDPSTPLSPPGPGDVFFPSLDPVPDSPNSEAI
# Experiment: Cell-Based Binding High-Content Assay For mVISTA (HC CBA mVISTA)
# Conditions: cell-based binding high-content assay, mVISTA; the 15th table; read-out: HC CBA mVISTA IC50
# Outline: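 mVISTA-293T, 4,000 cells/well; cpd ± washout step; biotin-peptide 2 nM final, 30 min RT; SA-Alexa 647 30 min; formaldehyde/Hoechst fix; HCS imaging; 4PL IC50.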
row,SMILES,IC50 [nM]
1,CCCCCCN1CC(=O)N[C@@H](Cc2ccc(O)cc2)C(=O)N[C@@H](CCCC)C(=O)N[C@@H](CC(N)=O)C(=O)N[C@@H](CCCNC(=N)N)C(=O)N(C)[C@@H](CCCC)C(=O)N[C@@H](CCCCC)C(=O)N2CCC[C@H]2C(=O)N[C@@H](C(C)C)C(=O)N[C@@H](CC(N)=O)C(=O)N[C@H](C(=O)NCC(=O)O)CSCC(=O)N[C@@H](Cc2ccc3ccccc3c2)C(=O)N[C@@H](Cc2c[nH]c3ccccc23)C(=O)N[C@@H](CC(=O)O)C1=O [compound 1249] ({CH2CO}-[2Nal]WD[NHexGly]Y[Nle]NR[NMeNle][Ahp(2)]PVNCG-OH; thioether N-14),13.9
2,CCCCCCN1CC(=O)N[C@@H](Cc2ccc(O)cc2)C(=O)N[C@@H](CCCCC)C(=O)N[C@@H](CC(N)=O)C(=O)N[C@@H](CCCNC(=N)N)C(=O)N(C)[C@@H](CCCC)C(=O)N[C@@H](CCCCC)C(=O)N2CCC[C@H]2C(=O)N[C@@H](C(C)C)C(=O)N[C@@H](CC(=O)O)C(=O)N[C@H](C(=O)NCC(=O)O)CSCC(=O)N[C@@H](Cc2ccc3ccccc3c2)C(=O)N[C@@H](Cc2c[nH]c3ccccc23)C(=O)N[C@@H](CC(=O)O)C1=O [compound 1251] ({CH2CO}-[2Nal]WD[NHexGly]Y[Ahp(2)]NR[NMeNle][Ahp(2)]PVDCG-OH; thioether N-14),12.5
3,CCCCCCN1CC(=O)N[C@@H](Cc2ccc(O)cc2)C(=O)N[C@@H](CCCCC)C(=O)N[C@@H](CC(N)=O)C(=O)N[C@@H](CCCNC(=N)N)C(=O)N(C)[C@@H](CCCC)C(=O)N[C@@H](CCCCC)C(=O)N2CCC[C@H]2C(=O)N[C@@H](C(C)C)C(=O)N[C@@H](CO)C(=O)N[C@H](C(=O)NCC(=O)O)CSCC(=O)N[C@@H](Cc2ccc3ccccc3c2)C(=O)N[C@@H](Cc2c[nH]c3ccccc23)C(=O)N[C@@H](CC(=O)O)C1=O [compound 1252] ({CH2CO}-[2Nal]WD[NHexGly]Y[Ahp(2)]NR[NMeNle][Ahp(2)]PVSCG-OH; thioether N-14),6.4
4,CCCCCCN1CC(=O)N[C@@H](Cc2ccc(O)cc2)C(=O)N[C@@H](CCCC)C(=O)N[C@@H](CC(N)=O)C(=O)N[C@@H](CCCNC(N)=O)C(=O)N(C)[C@@H](CCCC)C(=O)N[C@@H](CCCCC)C(=O)N2CCC[C@H]2C(=O)N[C@@H](C(C)C)C(=O)N[C@@H](CC(=O)O)C(=O)N[C@H](C(=O)NCC(=O)O)CSCC(=O)N[C@@H](Cc2ccc3ccccc3c2)C(=O)N[C@@H](Cc2c[nH]c3ccccc23)C(=O)N[C@@H](CC(=O)O)C1=O [compound 1253] ({CH2CO}-[2Nal]WD[NHexGly]Y[Nle]N[Cit][NMeNle][Ahp(2)]PVDCG-OH; thioether N-14),6.9

# Now from value to compound:
row,IC50 [nM],SMILES
1,38.4,CCCCCCN1CC(=O)N[C@@H](Cc2ccc(O)cc2)C(=O)N[C@@H](CCCC)C(=O)N[C@@H](CC(N)=O)C(=O)N[C@@H](CCCNC(=N)N)C(=O)N(C)[C@@H](CCCC)C(=O)N[C@@H](CCCCC)C(=O)N2CCC[C@H]2C(=O)N[C@@H](C(C)C)C(=O)N[C@@H](C(C)C)C(=O)N[C@H](C(=O)NCC(=O)O)CSCC(=O)N[C@@H](Cc2ccc3ccccc3c2)C(=O)N[C@@H](Cc2c[nH]c3ccccc23)C(=O)N[C@@H](CC(=O)O)C1=O [compound 1248] ({CH2CO}-[2Nal]WD[NHexGly]Y[Nle]NR[NMeNle][Ahp(2)]PVVCG-OH; thioether N-14)
2,22.1,CCCCCCN1CC(=O)N[C@@H](Cc2ccc(O)cc2)C(=O)N[C@@H](CCCCC)C(=O)N[C@@H](CC(N)=O)C(=O)N[C@@H](CCCNC(=N)N)C(=O)N(C)[C@@H](CCCC)C(=O)N[C@@H](CCCCC)C(=O)N2CCC[C@H]2C(=O)N[C@@H](C(C)C)C(=O)N[C@@H](C(C)C)C(=O)N[C@H](C(=O)NCC(=O)O)CSCC(=O)N[C@@H](Cc2ccc3ccccc3c2)C(=O)N[C@@H](Cc2c[nH]c3ccccc23)C(=O)N[C@@H](CC(=O)O)C1=O [compound 1250] ({CH2CO}-[2Nal]WD[NHexGly]Y[Ahp(2)]NR[NMeNle][Ahp(2)]PVVCG-OH; thioether N-14)
